Where “and” joins values, the source holds several entries; their conditions need not be identical. Equal entries are not always repeated. Inconclusive results and toxic doses are left out. How the source made its calls: active means survival T/C of 150% or more; inactive means T/C below 125% in these data.
Tested on: P388 leukemia ip, CD2F1 mice, survival T/C
Assay: NCI In Vivo Anticancer Drug Screen. Data for tumor model P388 Leukemia (intraperitoneal) in CD2F1 (CDF1) mice
Conditions: endpoint: median survival time, higher = longer survival
Procedure: The antitumor activity of compounds was measured in mice bearing transplantable tumors. Survival or tumor size were measured and the results are expressed as the measurement made in the treated group (T) divided by the measurement made in the vehicle treated control group (C). The tumor model used in this assay is P388 Leukemia (intraperitoneal) in CD2F1 (CDF1) mice

[1] = dose: 100.0 mg/kg/injection, schedule: Q01DX001 (ip), vehicle: saline with Tween-80
[2] = dose: 200.0 mg/kg/injection, schedule: Q01DX001 (ip), vehicle: saline with Tween-80
[3] = dose: 25.0 mg/kg/injection, schedule: Q01DX009 (ip), vehicle: saline with Tween-80
[4] = dose: 50.0 mg/kg/injection, schedule: Q01DX009 (ip), vehicle: saline with Tween-80
[5] = dose: 100.0 mg/kg/injection, schedule: Q01DX009 (ip), vehicle: saline with Tween-80
[6] = dose: 200.0 mg/kg/injection, schedule: Q01DX009 (ip), vehicle: saline with Tween-80
[7] = dose: 60.0 mg/kg/injection, schedule: Q01DX005 (ip), vehicle: saline with Tween-80
[8] = dose: 120.0 mg/kg/injection, schedule: Q01DX005 (ip), vehicle: saline with Tween-80
[9] = dose: 240.0 mg/kg/injection, schedule: Q01DX005 (ip), vehicle: saline with Tween-80
[10] = dose: 50.0 mg/kg/injection, schedule: Q01DX009 (ip), vehicle: saline
[11] = dose: 100.0 mg/kg/injection, schedule: Q01DX009 (ip), vehicle: saline
[12] = dose: 50.0 mg/kg/injection, schedule: Q01DX005 (ip), vehicle: saline with Tween-80
[13] = dose: 100.0 mg/kg/injection, schedule: Q01DX005 (ip), vehicle: saline with Tween-80
[14] = dose: 200.0 mg/kg/injection, schedule: Q01DX005 (ip), vehicle: saline with Tween-80
[15] = dose: 200.0 mg/kg/injection, schedule: Q01DX009 (ip), vehicle: saline
[16] = dose: 50.0 mg/kg/injection, schedule: Q01DX009 (ip), vehicle: Klucel (hydroxypropylcellulose) (HPC)
[17] = dose: 100.0 mg/kg/injection, schedule: Q01DX009 (ip), vehicle: Klucel (hydroxypropylcellulose) (HPC)
[18] = dose: 200.0 mg/kg/injection, schedule: Q01DX009 (ip), vehicle: Klucel (hydroxypropylcellulose) (HPC)

Measured: T/C

O=NNc1ccc([N+](=O)[O-])cc1
active: dose: 25.0 mg/kg/injection, schedule: Q01DX009 (ip), vehicle: water 152 % of control | dose: 50.0 mg/kg/injection, schedule: Q01DX009 (ip), vehicle: water 159 % of control
inactive: dose: 3.12 mg/kg/injection, schedule: Q01DX009 (ip), vehicle: water 102 % of control | dose: 6.25 mg/kg/injection, schedule: Q01DX009 (ip), vehicle: water 112 % of control and 121 % of control

CC/C(=N\Nc1cc(C)[nH]c(=O)c1)c1ccccc1
inactive: [1] 98 % of control | [2] 86 % of control | dose: 400.0 mg/kg/injection, schedule: Q01DX001 (ip), vehicle: saline with Tween-80 89 % of control

COc1cc2ccnc(/C=N\NC(N)=S)c2cc1OC
inactive: [3] 98 % of control | [4] 101 % of control | [5] 107 % of control | [6] 118 % of control

CCCCN=C(c1ccc(O)cc1)c1ccc(OC)cc1O
inactive: [7] 108 % of control | [8] 92 % of control | [9] 99 % of control

CC(C)N1CCOCC1
inactive: dose: 25.0 mg/kg/injection, schedule: Q01DX009 (ip), vehicle: saline 110 % of control | [10] 105 % of control and 100 % of control | [11] 105 % of control and 113 % of control

CCC[CH2][Sn]([CH2]CCC)([S]C(C)=O)[S]C(C)=O
inactive: dose: 12.5 mg/kg/injection, schedule: Q01DX001 (ip), vehicle: Klucel (hydroxypropylcellulose) (HPC) 113 % of control | dose: 25.0 mg/kg/injection, schedule: Q01DX001 (ip), vehicle: Klucel (hydroxypropylcellulose) (HPC) 105 % of control | dose: 50.0 mg/kg/injection, schedule: Q01DX001 (ip), vehicle: Klucel (hydroxypropylcellulose) (HPC) 114 % of control

O=C1NCC2CCCC1C2 (stereo not given)
inactive: [12] 101 % of control | [13] 100 % of control | [14] 97 % of control

FC(F)(F)Sc1c(SC(F)(F)F)c(SC(F)(F)F)n(-n2c(SC(F)(F)F)c(SC(F)(F)F)c(SC(F)(F)F)c2SC(F)(F)F)c1SC(F)(F)F
inactive: dose: 15.0 mg/kg/injection, schedule: Q01DX005 (ip), vehicle: Klucel (hydroxypropylcellulose) (HPC) 104 % of control | dose: 30.0 mg/kg/injection, schedule: Q01DX005 (ip), vehicle: Klucel (hydroxypropylcellulose) (HPC) 106 % of control | dose: 60.0 mg/kg/injection, schedule: Q01DX005 (ip), vehicle: Klucel (hydroxypropylcellulose) (HPC) 103 % of control and 97 % of control

O=C(Nc1ccccc1O)/C(Cl)=C/Cl
inactive: dose: 33.0 mg/kg/injection, schedule: Q01DX009 (ip), vehicle: saline with Tween-80 120 % of control | dose: 75.0 mg/kg/injection, schedule: Q01DX009 (ip), vehicle: saline with Tween-80 115 % of control | dose: 100.0 mg/kg/injection, schedule: Q04DX003 (ip), vehicle: saline with Tween-80 105 % of control | dose: 200.0 mg/kg/injection, schedule: Q04DX003 (ip), vehicle: saline with Tween-80 120 % of control

O=C(O)c1c(Cl)c(Cl)c(Cl)c(Cl)c1-c1c2ccc(=O)cc-2oc2cc(O)ccc12
inactive: [7] 100 % of control | [8] 100 % of control | [9] 96 % of control

O=P1(c2ccccc2)Cc2ccccc2N1Cc1ccccc1 (stereo not given)
inactive: [12] 100 % of control | [13] 103 % of control | [14] 104 % of control

Cc1c2c(c(O)c3c(O)cccc13)C(=O)C1(O)C(O)=C(C(=O)NCNc3ccc(C(N)=O)cn3)C(=O)C(N(C)C)C1C2 (stereo not given)
inactive: dose: 3.12 mg/kg/injection, schedule: Q01DX005 (ip), vehicle: saline 111 % of control | dose: 6.25 mg/kg/injection, schedule: Q01DX005 (ip), vehicle: saline 114 % of control and 117 % of control | dose: 12.5 mg/kg/injection, schedule: Q01DX005 (ip), vehicle: saline 114 % of control | dose: 25.0 mg/kg/injection, schedule: Q01DX005 (ip), vehicle: saline 120 % of control

CCOC(=O)C(C#N)C(=N)C1CC(C)(C)OC1=O (stereo not given)
inactive: [7] 100 % of control | [8] 103 % of control | [9] 94 % of control

CCCCCSSSCCCCC
inactive: [10] 101 % of control | [11] 96 % of control | [15] 104 % of control

O=C1C=CC(=Nc2ccc3[nH]c4ccccc4c3c2)C=C1
inactive: [12] 101 % of control and 92 % of control and 96 % of control | [13] 104 % of control and 93 % of control and 96 % of control | [14] 108 % of control and 121 % of control and 96 % of control | dose: 400.0 mg/kg/injection, schedule: Q01DX005 (ip), vehicle: saline with Tween-80 108 % of control

O=C(C1CC2CCC1C2)C1CC2CCC1C2 (stereo not given)
inactive: dose: 28.2 mg/kg/injection, schedule: Q01DX009 (ip), vehicle: saline with Tween-80 100 % of control | dose: 56.5 mg/kg/injection, schedule: Q01DX009 (ip), vehicle: saline with Tween-80 95 % of control | dose: 113.0 mg/kg/injection, schedule: Q01DX009 (ip), vehicle: saline with Tween-80 100 % of control

O=C1OC(c2ccccc2)=N/C1=C\c1cccc([N+](=O)[O-])c1
inactive: dose: 50.0 mg/kg/injection, schedule: Q04DX002 (ip), vehicle: saline with Tween-80 96 % of control | dose: 100.0 mg/kg/injection, schedule: Q04DX002 (ip), vehicle: saline with Tween-80 97 % of control | dose: 200.0 mg/kg/injection, schedule: Q04DX002 (ip), vehicle: saline with Tween-80 99 % of control | dose: 400.0 mg/kg/injection, schedule: Q04DX002 (ip), vehicle: saline with Tween-80 99 % of control

CC(=O)ON(C(=O)c1ccc([N+](=O)[O-])cc1)c1ccc(C=O)cc1
inactive: [1] 102 % of control | [2] 101 % of control

COc1ccc(OC)c2c1C(=O)C=CC2=O
inactive: dose: 1.56 mg/kg/injection, schedule: Q01DX001 (ip), vehicle: saline 108 % of control | dose: 3.13 mg/kg/injection, schedule: Q01DX001 (ip), vehicle: saline 110 % of control | dose: 6.25 mg/kg/injection, schedule: Q01DX001 (ip), vehicle: saline 108 % of control

O=c1sc2ccccc2n1CCCl
inactive: [3] 112 % of control | [4] 110 % of control | [5] 114 % of control | [6] 103 % of control

CNc1nc(C)nc(NC)n1
inactive: [16] 91 % of control | [17] 93 % of control | [18] 90 % of control

CCCCCCSc1nc2ccc(N=Cc3ccccc3O)cc2s1
inactive: [16] 94 % of control | [17] 87 % of control | [18] 90 % of control

CCSC(C(OC(C)=O)C(OC(C)=O)C(COC(C)=O)OC(C)=O)n1cc(F)c(=O)[nH]c1=O (stereo not given)
inactive: dose: 25.0 mg/kg/injection, schedule: Q01DX005 (ip), vehicle: other 97 % of control | dose: 50.0 mg/kg/injection, schedule: Q01DX005 (ip), vehicle: other 110 % of control | dose: 100.0 mg/kg/injection, schedule: Q01DX005 (ip), vehicle: other 105 % of control | dose: 200.0 mg/kg/injection, schedule: Q01DX005 (ip), vehicle: other 107 % of control | dose: 400.0 mg/kg/injection, schedule: Q01DX005 (ip), vehicle: other 100 % of control | dose: 400.0 mg/kg/injection, schedule: Q01DX009 (ip), vehicle: other 92 % of control

CN1CCN(C)C(N2CCOCC2)C(C)(C)C1 (stereo not given)
inactive: dose: 50.0 mg/kg/injection, schedule: Q01DX005 (ip), vehicle: saline 93 % of control | dose: 100.0 mg/kg/injection, schedule: Q01DX005 (ip), vehicle: saline 94 % of control | dose: 200.0 mg/kg/injection, schedule: Q01DX005 (ip), vehicle: saline 95 % of control

Cc1cc(=O)n2[nH]cnc2n1
inactive: dose: 12.5 mg/kg/injection, schedule: Q01DX009 (ip), vehicle: Klucel (hydroxypropylcellulose) (HPC) 97 % of control | dose: 25.0 mg/kg/injection, schedule: Q01DX009 (ip), vehicle: Klucel (hydroxypropylcellulose) (HPC) 109 % of control and 110 % of control and 98 % of control | [18] 99 % of control and 107 % of control and 109 % of control | dose: 400.0 mg/kg/injection, schedule: Q01DX009 (ip), vehicle: Klucel (hydroxypropylcellulose) (HPC) 104 % of control and 119 % of control

CC1=C(CN(CC(=O)O)CC(=O)O)C(=O)C(C(C)C)=C/C1=C(\c1ccccc1S(=O)(=O)O)c1cc(C(C)C)c(O)c(CN(CC(=O)O)CC(=O)O)c1C
inactive: [10] 108 % of control | [11] 104 % of control | [15] 103 % of control

Cc1ccc(N=C=C(c2ccccc2)c2ccccc2)cc1
inactive: [16] 123 % of control | [17] 119 % of control
